Series [1] has as its target T1, tubulin.
T1 construct: other: 2 μM tubulin, 45 min at 37° C., double reciprocal plot; rate and extent of tubulin polymerization; other: 25 μM or 100 μM
Nature of the series: Tubulin binding assay (fluorescence titration, quenching of intrinsic tubulin fluorescence). Further details: species or system mammalian. As to conditions: 2 μM tubulin, 45 min at 37° C., double reciprocal plot; read-out: dissociation constant (Kd) for binding to tubulin. The protocol:
Fluorescence titration for determining the tubulin binding parameters was performed as described previously (Gupta and Panda, 2002). In brief, 9-nitro-nos (0-100 μM) was incubated with 2 μM tubulin in 25 mM PIPES, pH 6.8, 3 mM MgSO4 and 1 mM EGTA for 45 min at 37° C. The relative intrinsic fluorescence intensity of tubulin was then monitored in a JASCO FP-6500 spectrofluorometer (JASCO, Tokyo, Japan) using a cuvette of 0.3-cm path length, and the excitation wavelength was 295 nm. The fluorescence emission intensity of 9-nitro-nos at this excitation wavelength was negligible. A 0.3-cm path-length cuvette was used to minimize the inner filter effects caused by the absorbance of 9-nitro-nos at higher concentration ranges. In addition, the inner filter effects were corrected using a formula Fcorrected=Fobserved·antilog [(Aex+Aem)/2], where Aex is the absorbance at the excitation wavelength and Aem is the absorbance at the emission wavelength. The dissociation constant (Kd) was determined by the formula: 1/B=Kd/[free ligand]+1, where B is the fractional occupancy and [free ligand] is the concentration of free noscapine or 9-nitro-nos. The fractional occupancy (B) was determined by the formula B=ΔF/ΔFmax, where ΔF is the change in fluorescence intensity when tubulin and its ligand are in equilibrium and ΔFmax is the value of maximum fluorescence change when tubulin is completely bound with its ligand. ΔFmax was calculated by plotting 1/ΔF versus 1/ligand using total ligand concentration as the first estimate of free ligand concentration.
Fluorescence titration for determining the tubulin binding parameters was performed as described previously. In brief, 9-F-nos, 9-Cl-nos, 9-Br-nos or 9-I-nos (0-100 μM) was incubated with 2 μM tubulin in 25 mM PIPES, pH 6.8, 3 mM MgSO4, and 1 mM EGTA for 45 min at 37° C. The relative intrinsic fluorescence intensity of tubulin was then monitored in a JASCO FP-6500 spectrofluorometer (JASCO, Tokyo, Japan) using a cuvette of 0.3-cm path length, and the excitation wavelength was 295 nm. The fluorescence emission intensity of noscapine and its derivatives at this excitation wavelength was negligible. A 0.3-cm path-length cuvette was used to minimize the inner filter effects caused by the absorbance of these agents at higher concentration ranges. In addition, the inner filter effects were corrected using a formula F corrected=F observe·antilog [(Aex+Aem)/2], where Aex is the absorbance at the excitation wavelength and Aem is the absorbance at the emission wavelength. The dissociation constant (Kd) was determined by the formula: 1/B=Kd/[free ligand]+1, where B is the fractional occupancy and [free ligand] is the concentration of 9-F-nos, 9-Cl-nos, 9-Br-nos or 9-I-nos. The fractional occupancy (B) was determined by the formula B=ΔF/ΔFmax, where ΔF is the change in fluorescence intensity when tubulin and its ligand are in equilibrium and ΔFmax is the value of maximum fluorescence change when tubulin is completely bound with its ligand. ΔFmax was calculated by plotting 1/ΔF versus 1/[free ligand].

In series [2] the test system is normal human fibroblast cells. The series is described as follows: Cell cycle analysis (propidium iodide, flow cytometry). The class given is cell-based. As to conditions: 100 μM. As for the experimental part: The flow cytometric evaluation of the cell cycle status was performed as described previously (Zhou et al., 2003). Briefly, 2×10^6 cells were centrifuged, washed twice with ice-cold PBS, and fixed in 70% ethanol. Tubes containing the cell pellets were stored at 4° C. for at least 24 hours. Cells were then centrifuged at 1000×g for 10 min and the supernatant was discarded. The pellets were washed twice with 5 ml of PBS and then stained with 0.5 ml of propidium iodide (0.1% in 0.6% Triton-X in PBS) and 0.5 ml of RNase A (2 mg/ml) for 45 minutes in dark. Samples were then analyzed on a FACSCalibur flow cytometer (Beckman Coulter Inc., Fullerton, Calif.).
In general terms: In flow cytometry, cells or beads pass a laser one at a time.

The test system of series [3] is 1A9/PTX22 cells. The series is described as follows: Sulforhodamine B cell proliferation assay. The class given is cell-based. As to conditions: Homo sapiens, 1A9/ptx-22; 1A9/PTX22, 72 hours, SRB. The protocol: (§1) Sulforhodamine B assay: The cell proliferation assay was performed in 96-well plates as described previously (Skehan et al., 1990; Zhou et al., 2003). Adherent cells (1A9 and 1A9/PTX22) were seeded in 96-well plates at a density of 5×10^3 cells per well. They were treated with increasing gradient concentrations of 9-nitro-nos the next day while in log-phase growth. After 72 hours of drug treatment, cells were fixed with 50% trichloroacetic acid and stained with 0.4% sulforhodamine B dissolved in 1% acetic acid. Cells were then washed with 1% acetic acid to remove unbound dye. The protein-bound dye was extracted with 10 mM Tris base to determine the optical density at 564-nm wavelength.

Series [4] has as its system 1A9 cells. Nature of the series: Sulforhodamine B cell proliferation assay. The class given is cell-based. As to conditions: Homo sapiens; 1A9, 72 hours, SRB. The protocol: as §1
Series [5] deals with T1, tubulin. The series is described as follows: Tubulin polymerization assay (light scattering at 550 nm). The class given is biochemical, mammalian. The settings on record: 25 μM or 100 μM. As for the experimental part: Mammalian brain tubulin (1.0 mg/ml) was mixed with different concentrations of 9-nitro-nos (25 or 100 μM) at 0° C. in an assembly buffer (100 mM PIPES at pH 6.8, 3 mM MgSO4, 1 mM EGTA, 1 mM GTP, and 1M sodium glutamate). Polymerization was initiated by raising the temperature to 37° C. in a water bath. The rate and extent of the polymerization reaction were monitored by light scattering at 550 nm, using a 0.3-cm path length cuvette in a JASCO FP-6500 spectrofluorometer (JASCO, Tokyo, Japan) for 30 minutes.

Series [6] relates to caspase-3 activity in CEM, CEM/VLB100, CEM/VM-1-5, 1A9 and 1A9/PTX22 cells. The series is described as follows: Determination of caspase-3 activity (Z-DEVD-aminoluciferin). The class given is cell-based, human. The settings on record: 72 hours; 25 μM (CEM lines) or 50 μM (1A9 lines). The protocol: Determination of caspase-3 activity: 10^6 cells were incubated with 25 μM 9-nitro-nos (CEM, CEMNLB100 and CEM/VM-1-5) or 50 μM 9-nitro-nos (1A9 and 1A9/PTX22) for 0, 24, 48 and 72 hours. Caspase-3 activity was then measured by the cleavage of the small synthetic substrate Z-DEVD-aminoluciferin (CaspaseGlo™ 3/7 Assay System Kit, Promega, Madison, Wis.) that becomes luminogenic upon cleavage. The luminescent signal, which is directly proportional to the amount of caspase-3 activity, was measured in a luminescence plate reader.

Entries after “also recorded” stand apart in the source; their conditions may differ.

For `COc1ccc2c(c1OC)C(=O)O[C@@H]2[C@H]1c2c(c([N+](=O)[O-])c3c(c2OC)OCO3)CCN1C` [9-nitro-nos, (S)-6,7-dimethoxy-3-((R)-4-methoxy-6-methyl-9-nitro-5,6,7,8-tetrahydro-[1,3]dioxolo[4,5-g]isoquinolin-5-yl)isobenzofuran-1(3H)-one], the equilibrium dissociation constant (Kd) in series [1] is 86 ± 6 µM. Further, the “cell cycle profile of normal human fibroblast cells” value in series [2] is “did not observe any perturbations in the cell cycle profile; also recorded: did not alter the cell cycle progression profile”. The IC50 in series [3] came to 27.5 µM; in series [4] it was 30.1 µM. Moreover, the “rate and extent of tubulin polymerization” value in series [5] was “did not inhibit the rate or extent of tubulin polymerization”. For the same molecule, the “activation of caspase-3” value in series [6] was 10-20 fold.

In general, Kd refers to a measure of binding affinity in units of concentration. The IC50 is the midpoint of a concentration-inhibition curve.

Source of the values: patent US8889705B2, “Noscapine analogs and their use in treating cancers” (Emory University, priority 2007, dated 2014).
